Data from patent US6395717B1, “Therapeutic drug for endotoxin blood symptom and multi-organ failure induced thereby” (priority 1995, dated 2002).

Legend:
[1] = system: renal failure induced by endotoxin; assay: Effect upon renal failure induced by endotoxin (kidney clearance of inulin and paraaminohippuric acid); assay type: in vivo, Whister-strain rats; settings: 10 mg/Kg intravenous
Protocol: Into each of ten Whister-strain rats (8 to 9 week age) having undergone cannulation at the carotid canal and the bladder was intraveneously drip-infused a 4% manitol solution containing inulin (5 mg/ml) and paraaminohippuric acid (2.5 mg/ml) at a rate of 0.1144 ml/min. Thirty minutes thereafter, a physiological saline solution of sialic acid ([…]) was administered, at a rate of 0.2 ml/100 g (dosage: 10 mg/Kg), to each of the rats administered with sialic acid, whereas the same amount of physiological saline was rapidly interveneously injected to the control rats. Another thirty minutes thereafter, a physiological saline solution of endotoxin was interaveneously injected to the rats (dosage: 0.25 mg/Kg). Then, blood and urine were sampled over 90 minutes, and the concentrations of inulin and paraaminohippuric acid were measured. A kidney clearance was calculated according to the following formula. Urine was collected at an interval of 15 minutes after the administration of sialic acid or physiological saline (in FIG. 2, −15 to 0 minutes, 0 to 15 minutes, 15 to 30 minutes, 30 to 45 minutes and 45 to 60 minutes), and blood was sampled at a middle point of a time period during urine-collecting. The clearance values are shown at such middle points for the respective fractions.
Kidney clearance=Amount of the drug recovered in urine collected in the collecting time period÷Concentration of the drug in plasma at the middle point
The concentration of inulin was measured by the Dishe & Borefreund's method (Z. Dishe and E. Borefreund, J. Biol. Chem., 192, 583-587 (1951)), and the concentration of paraaminohippuric acid was measured by the Marshall's method (E. K. Marshall, J. Biol. Chem., 122, 263-273 (1937)).
Results of the ratio in the filtering speed through glomerulus are shown in FIG. 2, and results of the ratio in renal plasma flow are in FIG. 3. In both the figures, the ordinate means the ratio in the filtering speed through glomerulus or the ratio in the renal plasma flow for 30 minutes between the intraveneous dip infusion of inulin and paraaminohippuric acid and the intraveneous injection of sialic acid or physiological saline.

[2] = system: endotoxin-shock; assay: Effect of sialic acid in reduction of endotoxin-shock (survival 24 hours after endotoxin); assay type: in vivo, SMA-strain male mice; settings: living mice 24 hours later
Protocol: Tests were conducted with respect to endotoxin-sensitive, SMA-strain male mice (20 to 30 g) used: (1) sixteen control mice, (2) eight mice each administrated with sialic acid and (3) six mice each administrated with a polymer of sialic acid. (1) With respect to the control mice, 0.1 ml/10 g of physiological saline was peritoneally administrated 30 minutes before the administration of an endotoxin. (2) With respect to the mice administrated with sialic acid, a solution in which 100 mg of sialic acid was dissolved in 10 ml of physiological saline or a ten-times diluted solution thereof was peritoneally administrated to the mouse at a rate of 0.1 ml/10 g of the mouse (Dosage: 100 mg/Kg, 10 mg/Kg). (3) With respect to the mice administrated with the sialic acid polymer, a solution in which 100 mg of a dimer or a trimmer of sialic acid was dissolved in 10 ml of physiological saline or a ten-times was peritoneally administrated to the mouse at a rate of 0.1 ml/10 g (Dosage: 100 mg/Kg). Thirty minutes after the administration, a physiological saline solution of endotoxin (10 mg/ml) was peritoneally administrated to the mouse at a rate of […] (administrated amount: 100 mg/Kg). Then, the number of living mice 24 hours later was checked. […]

[3] = endotoxin 0.25 mg/Kg iv 30 minutes later, 30 minutes after endotoxin administration

Q: `CC(=O)N[C@H]1[C@H]([C@H](O)[C@H](O)CO)OC(O)(C(=O)O)C[C@@H]1O` (stereo partly drawn) [sialic acid, N-acetylneuraminic acid] was tested. Which “influence on the ratio in the filtering speed through glomerulus and the ratio in the renal plasma flow, sialic acid alone” value ([1]; before endotoxin administration) did it give?
A: Its value is “no influence was observed”.

Q: What about the “decrease of the ratio in the filtering speed through glomerulus” value [1, 3] of the same compound?
A: The value was 30%.

Q: And the “decrease of the ratio in the renal plasma flow” value [1, 3]?
A: Its value is 20%.

Q: What about the “reduction in both the ratio in the filtering speed through glomerulus and the ratio in the renal plasma flow due to endotoxin” value ([1]; risk degree of 5% versus control rats) of the same compound?
A: Its value is “significantly prevented”.

Q: What about the survival rate ([2]; 10 mg/Kg peritoneally 30 minutes before endotoxin 100 mg/Kg peritoneally, n=8) of the same compound?
A: The survival rate was 50%.

Q: What about the survival rate ([2]; 100 mg/Kg peritoneally 30 minutes before endotoxin 100 mg/Kg peritoneally) of the same compound?
A: Its survival rate is 87.5%.
